Among the data in US10308639B2, “Phosphatidylinositol 3-kinase inhibitors” (Gilead Sciences, Inc., priority 2014, dated 2019) are IC50 values, retold here.

Common to all, as to type: biochemical
In one assay the target is T1, PI3Kγ (Homo sapiens, UniProt P48736).
T1 construct: made in house
Kind of assay: TR-FRET enzymatic activity assay, PI3Kγ. The settings on record: read-out: PI3Kγ IC50. The procedure, abridged:
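Enzymatic activity against the PI3K isoforms was measured using a time-resolved fluorescence resonance energy transfer (TR-FRET) assay.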

For the next assay, the target named is T2, PI3Kδ (Homo sapiens, UniProt O00329).
T2 construct: made in house
Kind of assay: TR-FRET enzymatic activity assay, PI3Kδ.

In another assay the target is T3, PI3Kβ (Homo sapiens, UniProt P42338).
T3 construct: made in house
Kind of assay: TR-FRET enzymatic activity assay, PI3Kβ.

Where [1] appears, read: Table 2, TR-FRET, 2x Km ATP, 30 minutes at 25° C.

The structures appear in SMILES notation. Like-named read-outs stand apart in the source and are kept apart here.

T1 sequence (P48736 whole entry): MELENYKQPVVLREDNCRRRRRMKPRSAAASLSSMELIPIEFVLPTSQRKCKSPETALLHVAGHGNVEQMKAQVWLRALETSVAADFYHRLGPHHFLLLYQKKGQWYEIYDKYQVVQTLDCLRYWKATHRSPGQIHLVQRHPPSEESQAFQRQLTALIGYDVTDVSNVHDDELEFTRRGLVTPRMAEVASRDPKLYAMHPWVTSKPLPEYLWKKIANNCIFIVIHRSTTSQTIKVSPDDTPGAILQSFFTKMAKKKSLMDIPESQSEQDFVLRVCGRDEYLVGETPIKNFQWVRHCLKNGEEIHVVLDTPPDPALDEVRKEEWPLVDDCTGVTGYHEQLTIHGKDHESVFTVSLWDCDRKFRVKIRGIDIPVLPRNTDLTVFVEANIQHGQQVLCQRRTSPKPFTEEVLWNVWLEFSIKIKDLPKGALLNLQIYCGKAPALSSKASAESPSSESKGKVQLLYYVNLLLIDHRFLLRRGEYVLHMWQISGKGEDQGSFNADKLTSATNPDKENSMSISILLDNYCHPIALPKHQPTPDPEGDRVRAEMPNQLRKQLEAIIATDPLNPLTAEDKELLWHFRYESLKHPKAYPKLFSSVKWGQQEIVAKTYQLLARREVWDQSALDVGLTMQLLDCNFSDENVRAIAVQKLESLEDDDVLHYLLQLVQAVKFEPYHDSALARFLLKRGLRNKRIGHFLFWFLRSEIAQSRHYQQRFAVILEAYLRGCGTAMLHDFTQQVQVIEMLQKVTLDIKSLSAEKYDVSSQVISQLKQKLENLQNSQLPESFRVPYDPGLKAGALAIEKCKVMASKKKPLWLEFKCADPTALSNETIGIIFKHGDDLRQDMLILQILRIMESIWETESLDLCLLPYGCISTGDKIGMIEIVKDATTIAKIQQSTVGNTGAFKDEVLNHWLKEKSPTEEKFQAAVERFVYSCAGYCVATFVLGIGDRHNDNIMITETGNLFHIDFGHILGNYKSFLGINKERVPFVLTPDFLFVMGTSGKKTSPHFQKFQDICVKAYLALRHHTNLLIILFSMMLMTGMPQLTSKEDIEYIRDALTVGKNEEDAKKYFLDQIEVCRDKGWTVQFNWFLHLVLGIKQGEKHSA
T2 sequence (O00329 whole entry): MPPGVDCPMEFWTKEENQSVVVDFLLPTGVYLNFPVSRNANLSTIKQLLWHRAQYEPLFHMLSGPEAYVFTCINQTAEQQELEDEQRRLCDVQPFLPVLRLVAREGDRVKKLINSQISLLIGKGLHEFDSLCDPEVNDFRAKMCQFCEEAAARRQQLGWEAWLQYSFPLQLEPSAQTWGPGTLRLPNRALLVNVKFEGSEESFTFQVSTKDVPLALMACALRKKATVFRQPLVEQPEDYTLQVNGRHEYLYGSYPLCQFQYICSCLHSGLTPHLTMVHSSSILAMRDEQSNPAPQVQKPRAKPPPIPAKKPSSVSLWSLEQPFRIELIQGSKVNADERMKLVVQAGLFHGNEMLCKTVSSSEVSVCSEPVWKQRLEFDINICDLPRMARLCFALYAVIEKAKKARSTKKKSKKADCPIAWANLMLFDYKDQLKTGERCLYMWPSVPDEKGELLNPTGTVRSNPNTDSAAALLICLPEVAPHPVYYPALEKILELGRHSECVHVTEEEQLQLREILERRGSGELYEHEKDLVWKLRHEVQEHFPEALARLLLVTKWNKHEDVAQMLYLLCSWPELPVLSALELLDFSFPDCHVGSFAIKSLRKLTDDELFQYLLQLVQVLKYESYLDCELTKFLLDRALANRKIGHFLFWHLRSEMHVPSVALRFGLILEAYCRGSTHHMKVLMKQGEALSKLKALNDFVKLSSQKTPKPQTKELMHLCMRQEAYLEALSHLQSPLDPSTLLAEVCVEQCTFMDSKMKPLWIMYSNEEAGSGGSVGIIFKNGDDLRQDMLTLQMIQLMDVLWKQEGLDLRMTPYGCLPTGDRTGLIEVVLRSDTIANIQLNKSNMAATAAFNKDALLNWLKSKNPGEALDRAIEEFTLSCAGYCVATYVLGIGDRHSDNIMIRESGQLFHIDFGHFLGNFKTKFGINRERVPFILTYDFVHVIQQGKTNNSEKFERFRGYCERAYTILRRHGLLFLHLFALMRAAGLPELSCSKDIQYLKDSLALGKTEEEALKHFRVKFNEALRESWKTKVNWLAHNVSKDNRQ
T2 sequence (P27986 whole entry partner): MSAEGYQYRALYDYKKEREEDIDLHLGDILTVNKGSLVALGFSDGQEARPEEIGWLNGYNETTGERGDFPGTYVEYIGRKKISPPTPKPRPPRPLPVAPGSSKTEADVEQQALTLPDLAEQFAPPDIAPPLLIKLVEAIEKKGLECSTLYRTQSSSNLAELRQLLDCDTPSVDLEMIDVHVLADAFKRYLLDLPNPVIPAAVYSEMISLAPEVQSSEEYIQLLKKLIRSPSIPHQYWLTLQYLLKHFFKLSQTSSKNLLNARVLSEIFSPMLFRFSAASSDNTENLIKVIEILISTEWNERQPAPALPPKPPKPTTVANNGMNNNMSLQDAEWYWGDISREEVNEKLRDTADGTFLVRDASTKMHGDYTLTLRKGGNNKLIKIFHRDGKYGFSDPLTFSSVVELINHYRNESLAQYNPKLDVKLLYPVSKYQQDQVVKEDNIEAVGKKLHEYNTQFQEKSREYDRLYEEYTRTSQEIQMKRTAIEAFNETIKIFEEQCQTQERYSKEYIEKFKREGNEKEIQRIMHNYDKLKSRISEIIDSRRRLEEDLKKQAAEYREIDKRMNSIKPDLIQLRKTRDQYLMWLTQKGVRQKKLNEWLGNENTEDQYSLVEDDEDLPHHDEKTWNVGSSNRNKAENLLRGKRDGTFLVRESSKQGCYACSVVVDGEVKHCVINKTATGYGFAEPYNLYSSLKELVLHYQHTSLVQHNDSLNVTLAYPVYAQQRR
T3 sequence (P42338 whole entry): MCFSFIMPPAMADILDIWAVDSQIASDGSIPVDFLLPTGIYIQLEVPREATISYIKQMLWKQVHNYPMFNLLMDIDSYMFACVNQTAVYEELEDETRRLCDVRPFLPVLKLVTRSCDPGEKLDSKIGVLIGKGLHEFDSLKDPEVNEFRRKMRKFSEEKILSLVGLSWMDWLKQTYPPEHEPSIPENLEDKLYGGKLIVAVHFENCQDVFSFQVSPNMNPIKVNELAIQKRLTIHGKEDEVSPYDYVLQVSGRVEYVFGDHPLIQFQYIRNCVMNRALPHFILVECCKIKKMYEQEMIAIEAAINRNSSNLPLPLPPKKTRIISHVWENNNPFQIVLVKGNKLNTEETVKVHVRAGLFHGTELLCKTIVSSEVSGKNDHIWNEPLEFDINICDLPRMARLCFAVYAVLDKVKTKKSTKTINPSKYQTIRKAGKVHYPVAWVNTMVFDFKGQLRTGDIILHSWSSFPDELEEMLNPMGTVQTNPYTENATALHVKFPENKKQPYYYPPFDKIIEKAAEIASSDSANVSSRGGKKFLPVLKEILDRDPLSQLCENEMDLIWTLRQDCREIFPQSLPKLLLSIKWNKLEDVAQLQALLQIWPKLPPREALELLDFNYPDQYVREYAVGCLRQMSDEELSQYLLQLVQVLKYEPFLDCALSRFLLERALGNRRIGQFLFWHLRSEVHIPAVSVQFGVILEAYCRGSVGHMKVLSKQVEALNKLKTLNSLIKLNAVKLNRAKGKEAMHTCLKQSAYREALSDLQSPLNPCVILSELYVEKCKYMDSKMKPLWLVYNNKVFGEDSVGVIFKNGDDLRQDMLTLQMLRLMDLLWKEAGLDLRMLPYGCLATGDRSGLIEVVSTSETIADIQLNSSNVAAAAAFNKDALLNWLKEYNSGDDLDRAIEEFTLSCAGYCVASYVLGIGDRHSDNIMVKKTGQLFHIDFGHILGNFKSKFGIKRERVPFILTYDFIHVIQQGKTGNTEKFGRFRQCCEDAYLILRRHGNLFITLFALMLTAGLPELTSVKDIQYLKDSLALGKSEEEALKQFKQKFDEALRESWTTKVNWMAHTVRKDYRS
T3 sequence (P27986 whole entry partner): as the sequence (P27986 whole entry partner) above

Consider `N#Cc1c(N)nc(N)nc1N[C@H](c1nc2c(Cl)cc(F)cc2c(=O)n1-c1cc[nH]n1)C1CCC1` [Compound 130, (S)-2,4-diamino-6-(((8-chloro-6-fluoro-4-oxo-3-(1H-pyrazol-3-yl)-3,4-dihydroquinazolin-2-yl)(cyclobutyl)methyl)amino)pyrimidine-5-carbonitrile], for which the IC50 worked out at 7.8 µM at PI3Kγ (Table 2a, same assay); 0.004 µM against PI3Kδ (Table 2a, same assay); 0.004 µM against PI3Kβ (Table 2a, same assay).
Turning to `Nc1nc(N)c(Cl)c(N[C@H](c2nc3cccc(Cl)c3c(=O)n2-c2cc(Cl)[nH]n2)C2CC2)n1` [Compound 14, (S)-5-chloro-3-(5-chloro-1H-pyrazol-3-yl)-2-(cyclopropyl((2,6-diamino-5-chloropyrimidin-4-yl)amino)methyl)quinazolin-4(3H)-one], the IC50 was found to be 7.6 µM at PI3Kγ (setting [1]), 0.051 µM against PI3Kδ (setting [1]) and 0.35 µM at PI3Kβ (setting [1]).
Regarding `CC[C@H](Nc1ncnc2sccc12)c1nc2c(Cl)ccc(Cl)c2c(=O)n1-c1cn[nH]c1` [Compound 56, (S)-5,8-dichloro-3-(1H-pyrazol-4-yl)-2-(1-(thieno[2,3-d]pyrimidin-4-ylamino)propyl)quinazolin-4(3H)-one], the values for the half-inhibitory concentration (IC50) on PI3Kγ, against PI3Kδ (setting [1]) and at PI3Kβ (setting [1]) were more than 10 µM, 0.088 µM and 1.3 µM, respectively.
For the compound `CC[C@H](Nc1nc(N)nc(N)c1C#N)c1nc2cccc(Cl)c2c(=O)n1-c1n[nH]cc1Br` [Compound 83, (S)-2,4-diamino-6-((1-(3-(4-bromo-1H-pyrazol-3-yl)-5-chloro-4-oxo-3,4-dihydroquinazolin-2-yl)propyl)amino)pyrimidine-5-carbonitrile], the figures for the IC50 on PI3Kγ (setting [1]), against PI3Kδ (setting [1]) and against PI3Kβ (setting [1]) were 0.24 µM, 0.001 µM and 0.013 µM, respectively.
With `C[C@H](Nc1nc(N)nc(N)c1Cl)c1nc2cccc(C(F)(F)F)c2c(=O)n1-c1cn[nH]c1` [Compound 209, (S)-2-(1-((2,6-diamino-5-chloropyrimidin-4-yl)amino)ethyl)-3-(1H-pyrazol-4-yl)-5-(trifluoromethyl)quinazolin-4(3H)-one], the IC50 was determined as 1.8 µM at PI3Kγ (Table 2a, same assay); 0.016 µM against PI3Kδ (Table 2a, same assay); 0.083 µM against PI3Kβ (Table 2a, same assay).
Take `O=c1c2c(Cl)cccc2nc([C@@H](Nc2ncnc3scnc23)C2CC2)n1-c1cc[nH]n1` [Compound 26, (S)-5-chloro-2-(cyclopropyl(thiazolo[5,4-d]pyrimidin-7-ylamino)methyl)-3-(1H-pyrazol-3-yl)quinazolin-4(3H)-one]: the IC50 at PI3Kγ (setting [1]) amounted to 1.3 µM; at PI3Kδ (setting [1]) it was 0.0006 µM; against PI3Kβ (setting [1]) it was 0.003 µM.
Consider `C[C@H](Nc1nc(N)nc(N)c1C#N)c1nc2ccc(F)cc2c(=O)n1-c1cc[nH]n1` [Compound 115, (S)-2,4-diamino-6-((1-(6-fluoro-4-oxo-3-(1H-pyrazol-3-yl)-3,4-dihydroquinazolin-2-yl)ethyl)amino)pyrimidine-5-carbonitrile], for which the half-maximal inhibitory concentration (IC50) at PI3Kγ (setting [1]) is 0.56 µM; against PI3Kδ (setting [1]) it was 0.001 µM; on PI3Kβ (setting [1]), 0.002 µM.
Turning to `O=c1c2c(Cl)ccc(Cl)c2nc([C@@H](Nc2ncnc3scnc23)C2CC2)n1-c1cn[nH]c1` [Compound 38, (S)-5,8-dichloro-2-(cyclopropyl(thiazolo[5,4-d]pyrimidin-7-ylamino)methyl)-3-(1H-pyrazol-4-yl)quinazolin-4(3H)-one], the IC50 at PI3Kγ (setting [1]) stood at 1.1 µM; against PI3Kδ (setting [1]), 0.004 µM; on PI3Kβ (setting [1]), 0.009 µM.
For the compound `CC[C@H](NC(=O)c1nccnc1N)c1nc2c(Cl)ccc(Cl)c2c(=O)n1-c1cc[nH]n1` [Compound 118, (S)-3-amino-N-(1-(5,8-dichloro-4-oxo-3-(1H-pyrazol-3-yl)-3,4-dihydroquinazolin-2-yl)propyl)pyrazine-2-carboxamide], the figures for the half-maximal inhibitory concentration (IC50) on PI3Kγ, at PI3Kδ (setting [1]) and at PI3Kβ (setting [1]) were more than 10 µM, 0.26 µM and 0.51 µM, respectively.
On to `O=c1c2c(Cl)cccc2nc([C@H](CO)Nc2ncnc3scnc23)n1-c1cn[nH]c1` [Compound 50, (R)-5-chloro-2-(2-hydroxy-1-(thiazolo[5,4-d]pyrimidin-7-ylamino)ethyl)-3-(1H-pyrazol-4-yl)quinazolin-4(3H)-one], for which the IC50 on PI3Kγ (setting [1]) came to 1.8 µM; against PI3Kδ (setting [1]) it was 0.007 µM; on PI3Kβ (setting [1]), 0.047 µM.
`Cc1n[nH]c2nc(Cl)nc(N[C@@H](C)c3nc4cccc(Cl)c4c(=O)n3-c3cc[nH]n3)c12` [Compound 89, (S)-5-chloro-2-(1-((6-chloro-3-methyl-1H-pyrazolo[3,4-d]pyrimidin-4-yl)amino)ethyl)-3-(1H-pyrazol-3-yl)quinazolin-4(3H)-one]: the 50% inhibitory concentration (IC50) at PI3Kγ is more than 10 µM; against PI3Kδ (setting [1]), 1.9 µM; against PI3Kβ (setting [1]), 3.1 µM.
Take `C[C@H](Nc1nc(N)nc(C(F)F)c1C#N)c1nc2c(Cl)cccc2c(=O)n1-c1cc[nH]n1` [Compound 188, (S)-2-amino-4-((1-(8-chloro-4-oxo-3-(1H-pyrazol-3-yl)-3,4-dihydroquinazolin-2-yl)ethyl)amino)-6-(difluoromethyl)pyrimidine-5-carbonitrile]: the IC50 at PI3Kγ (Table 2a, same assay) was determined as 4 µM; against PI3Kδ (Table 2a, same assay) it was 0.004 µM; against PI3Kβ (Table 2a, same assay) it was 0.009 µM.
For the compound `CC[C@H](Nc1ncnc2ccc(Cl)nc12)c1nc2c(C#N)cccc2c(=O)n1-c1cn[nH]c1` [Compound 94, (S)-2-(1-((6-chloropyrido[3,2-d]pyrimidin-4-yl)amino)propyl)-4-oxo-3-(1H-pyrazol-4-yl)-3,4-dihydroquinazoline-8-carbonitrile], the results for the IC50 on PI3Kγ (setting [1]), against PI3Kδ (setting [1]) and against PI3Kβ (setting [1]) were 1.5 µM, 0.008 µM and 0.1 µM, respectively.
`CC[C@H](Nc1nc(N)nc(N)c1C#N)c1nc2cccc(C3CC3)c2c(=O)n1-c1cc[nH]n1` [Compound 245, (S)-2,4-diamino-6-((1-(5-cyclopropyl-4-oxo-3-(1H-pyrazol-3-yl)-3,4-dihydroquinazolin-2-yl)propyl)amino)pyrimidine-5-carbonitrile]: the IC50 on PI3Kγ (Table 2a, same assay) turned out to be 0.37 µM; on PI3Kδ (Table 2a, same assay), 0.006 µM; against PI3Kβ (Table 2a, same assay) it was 0.004 µM.
As to `CC[C@H](Nc1nc(N)nc(N)c1C#N)c1nc2ccc(F)cc2c(=O)n1-c1cc[nH]n1` [Compound 112, (S)-2,4-diamino-6-((1-(6-fluoro-4-oxo-3-(1H-pyrazol-3-yl)-3,4-dihydroquinazolin-2-yl)propyl)amino)pyrimidine-5-carbonitrile], the IC50 at PI3Kγ (setting [1]) worked out at 2.2 µM; against PI3Kδ (setting [1]) it was 0.004 µM; at PI3Kβ (setting [1]) it was 0.017 µM.
`Cc1c[nH]nc1-n1c([C@@H](Nc2nc(N)nc(N)c2Cl)C2CC2)nc2cccc(Cl)c2c1=O` [Compound 248, (S)-5-chloro-2-(cyclopropyl((2,6-diamino-5-chloropyrimidin-4-yl)amino)methyl)-3-(4-methyl-1H-pyrazol-3-yl)quinazolin-4(3H)-one]: the IC50 was found to be 8.6 µM at PI3Kγ (Table 2a, same assay); 0.045 µM against PI3Kδ (Table 2a, same assay); 0.65 µM on PI3Kβ (Table 2a, same assay).
On to `CC[C@H](Nc1ncnc2scnc12)c1nc2c(Cl)ccc(Cl)c2c(=O)n1-c1cn[nH]c1` [Compound 39, (S)-5,8-dichloro-3-(1H-pyrazol-4-yl)-2-(1-(thiazolo[5,4-d]pyrimidin-7-ylamino)propyl)quinazolin-4(3H)-one], for which the IC50 is 4.7 µM on PI3Kγ (setting [1]), 0.022 µM at PI3Kδ (setting [1]) and 0.17 µM on PI3Kβ (setting [1]).
For the compound `Nc1nc(N)c(Cl)c(N[C@H](c2nc3c(C(F)F)cc(F)cc3c(=O)n2-c2cc[nH]n2)C2CC2)n1` [Compound 144, (S)-2-(cyclopropyl((2,6-diamino-5-chloropyrimidin-4-yl)amino)methyl)-8-(difluoromethyl)-6-fluoro-3-(1H-pyrazol-3-yl)quinazolin-4(3H)-one], the IC50 was more than 10 µM on PI3Kγ (Table 2a, same assay); 0.19 µM against PI3Kδ (Table 2a, same assay); 0.13 µM against PI3Kβ (Table 2a, same assay).
Turning to `C[C@H](Nc1nc(N)nc(N)c1Cl)c1nc2c(C(F)F)cc(F)cc2c(=O)n1-c1cc[nH]n1` [Compound 141, (S)-2-(1-((2,6-diamino-5-chloropyrimidin-4-yl)amino)ethyl)-8-(difluoromethyl)-6-fluoro-3-(1H-pyrazol-3-yl)quinazolin-4(3H)-one], the IC50 is more than 10 µM on PI3Kγ (Table 2a, same assay); 0.11 µM at PI3Kδ (Table 2a, same assay); 0.13 µM against PI3Kβ (Table 2a, same assay).
For `Cc1nc(N)nc(N[C@@H](c2ccccc2)c2nc3cccc(Cl)c3c(=O)n2-c2cn[nH]c2)c1C#N` [Compound 108, (S)-2-amino-4-(((5-chloro-4-oxo-3-(1H-pyrazol-4-yl)-3,4-dihydroquinazolin-2-yl)(phenyl)methyl)amino)-6-methylpyrimidine-5-carbonitrile], the IC50 at PI3Kγ (setting [1]) was determined as 0.15 µM; on PI3Kδ (setting [1]), 0.001 µM; against PI3Kβ (setting [1]), 0.005 µM.
With `CC[C@H](Nc1ncnc2[nH]cnc12)c1nc2c(Cl)ccc(Cl)c2c(=O)n1-c1cn[nH]c1` [Compound 57, (S)-2-(1-((9H-purin-6-yl)amino)propyl)-5,8-dichloro-3-(1H-pyrazol-4-yl)quinazolin-4(3H)-one], the IC50 was more than 10 µM at PI3Kγ, 0.029 µM against PI3Kδ (setting [1]) and 0.38 µM on PI3Kβ (setting [1]).
Consider `C[C@H](Nc1nc(N)nc(N)c1Cl)c1nc2c(Cl)cc(F)cc2c(=O)n1-c1c[nH]cn1` [Compound 284, (S)-8-chloro-2-(1-((2,6-diamino-5-chloropyrimidin-4-yl)amino)ethyl)-6-fluoro-3-(1H-imidazol-4-yl)quinazolin-4(3H)-one], for which the IC50 at PI3Kγ (Table 2a, same assay) was more than 10 µM; against PI3Kδ (Table 2a, same assay), 0.02 µM; against PI3Kβ (Table 2a, same assay), 0.34 µM.
Consider `CC[C@H](Nc1ncnc2scnc12)c1nc2cccc(Cl)c2c(=O)n1-c1n[nH]cc1Br` [Compound 77, (S)-3-(4-bromo-1H-pyrazol-3-yl)-5-chloro-2-(1-(thiazolo[5,4-d]pyrimidin-7-ylamino)propyl)quinazolin-4(3H)-one], for which the IC50 on PI3Kγ (setting [1]) worked out at 1.7 µM; against PI3Kδ (setting [1]) it was 0.005 µM; against PI3Kβ (setting [1]), 0.14 µM.
